In brackets after ≈: the same amount, converted by molar mass. Like-named read-outs stand apart in the source and are kept apart here.
Legend:
[1] = tested on: primary cultured airway epithelial cells from individuals with CF; conditions: Primary human CF, 2 μM, ref [1], cited from earlier work
CuFi-1 cells [2] = conditions: cited from earlier work; for ASL pH / ΔpH: ref [1]; for ΔpH: vs vehicle control
[3] = Solubility of AmB in aqueous media; type: physicochemical; conditions: 37° C.
CuFi-1 cells [4] = experiment: Fluorescence microscopic assay of airway surface liquid (ASL) pH in CuFi-1 cells; type: cell-based, human
Method: Cell Lines and Growth Conditions. NuLi, CuFi-1, and CuFi-4 cells (Welsh Laboratory, University of Iowa) were grown from cryostock on Thermo Scientific BioLite Cell Culture Treated 75 cm^2 flasks. These flasks were previously coated with 4 mL of 60 μg/mL human placental collagen type IV (Sigma-Aldrich) for a minimum of 1 h at 37° C., rinsed twice with PBS, and then dried before seeding. The cells were cultured with 12 mL Bronchial Epithelial Cell Growth Medium (BEGM) BulletKit (Lonza CC-3170), which includes the basal medium and eight SingleQuots of supplements (bovine pituitary extract (BPE), 2 mL; hydrocortisone, 0.5 mL; hEGF, 0.5 mL; adrenaline, 0.5 mL; transferrin, 0.5 mL; insulin, 0.5 mL; retinoic acid, 0.5 mL; triiodothyronine, 0.5 mL). The gentamicin-AmB aliquot was discarded, and the medium was instead supplemented with 50 μg/mL penicillin-streptomycin (Corning Cellgro), 50 μg/mL gentamicin (Sigma-Aldrich G1397), and 2 μg/mL fluconazole (Sigma-Aldrich). […]
Fluorescence Microscopic Assay for Measurement of Airway Surface Liquid pH. […] Following dissolution in methanol, the AmB concentration in the stock suspension was measured in triplicate by absorbance spectroscopy. Concentrations were calculated from the absorbance at 406 nm (8406=164,000 M^−1 cm^−1) using Beer's law. […]
Small-diameter NuLi and CuFi cells were used for measurement of the ASL pH. […] ASL pH was measured 2 h later. […]

[5] = cited from earlier work
CuFi-4 cells = conditions: cited from earlier work
[6] = Particle size of wet-milled AmB suspensions (Malvern Mastersizer); type: physicochemical

SMILES: C[C@@H]1[C@H](O)[C@@H](C)/C=C/C=C/C=C/C=C/C=C/C=C/C=C/[C@H](O[C@@H]2O[C@H](C)[C@@H](O)[C@H](N)[C@@H]2O)C[C@@H]2O[C@](O)(C[C@@H](O)C[C@@H](O)[C@H](O)CC[C@@H](O)C[C@@H](O)CC(=O)O[C@H]1C)C[C@H](O)[C@H]2C(=O)O [AmB, amphotericin B]
- ASL pH [1]: 6.97
- ΔpH ([1]; vs vehicle control): +0.21
- ASL pH (CuFi-1 cells [2]; CuFi-1, 2 μM): 7.06
- ΔpH (CuFi-1 cells [2]; CuFi-1, 2 μM): +0.18
- ASL pH (CuFi-1 cells [2]; CuFi-1, 50 μM): 6.80
- ΔpH (CuFi-1 cells [2]; CuFi-1, 50 μM): +0.02
- solubility in Gamble's solution [3]: 0.2 µg/mL (≈ 0.216 µM)
- solubility in dilute Alveofact [3]: 0.2 µg/mL (≈ 0.216 µM)
- solubility in water [3]: 0.5 µg/mL (≈ 0.541 µM)
- effect on ASL pH (CuFi-1 cells [4]; CuFi-1, 2 μM in perfluorocarbon vehicle): effective
- effect on ASL pH (CuFi-1 cells [4]; CuFi-1, 50 μM AmB): not at a 50 μM AmB concentration
- pKa amine group on the mycosamine ring [5]: 10.0
- pKa carboxylate group [5]: 5.7

SMILES: CC(C)(C)c1cc(C(C)(C)C)c(NC(=O)c2c[nH]c3ccccc3c2=O)cc1O [Ivacaftor, ivacaftor]
- ASL pH (CuFi-1 cells [2]; CuFi-1, 2 μM): 6.82
- ΔpH (CuFi-1 cells [2]; CuFi-1, 2 μM): +0.07
- increase in ASL pH (CuFi-1 cells [2]; CuFi-1 cells with homozygous ΔF508 mutations): minimal increase in ASL pH
- ASL pH (CuFi-4 cells; CuFi-4, 2 μM, ref [1]): 6.92
- ΔpH (CuFi-4 cells; CuFi-4, 2 μM, vs vehicle control, ref [1]): +0.17
- increase in ASL pH (CuFi-4 cells; CuFi-4 cells): about 0.2 pH units

SMILES: C[C@@H]1[C@H](O)[C@@H](C)/C=C/C=C/C=C/C=C/C=C/C=C/C=C/[C@H](O[C@@H]2O[C@H](C)[C@@H](O)[C@H](N)[C@@H]2O)C[C@@H]2O[C@](O)(C[C@@H](O)C[C@@H](O)[C@H](O)CC[C@@H](O)C[C@@H](O)CC(=O)O[C@H]1C)C[C@H](O)[C@H]2C(=O)O [′202, amphotericin B]
- Primary Particle Size X50 after wet-milling ([6]; 1 pass (15 kpsi)): 3.01 μm
- Primary Particle Size X90 after wet-milling ([6]; 1 pass (15 kpsi)): 6.93 μm
- Primary Particle Size X50 after wet-milling ([6]; 3 passes (15, 15, 20 kpsi)): 2.16 μm
- Primary Particle Size X90 after wet-milling ([6]; 3 passes (15, 15, 20 kpsi)): 5.99 μm

SMILES: C[C@@H]1[C@H](O)[C@@H](C)/C=C/C=C/C=C/C=C/C=C/C=C/C=C/[C@H](O[C@@H]2O[C@H](C)[C@@H](O)[C@H](N)[C@@H]2O)C[C@@H]2O[C@](O)(C[C@@H](O)C[C@@H](O)[C@H](O)CC[C@@H](O)C[C@@H](O)CC(=O)O[C@H]1C)C[C@H](O)[C@H]2C(=O)O [′203, amphotericin B]
- Primary Particle Size X50 after wet-milling ([6]; 1 pass (15 kpsi)): 1.14 μm
- Primary Particle Size X90 after wet-milling ([6]; 1 pass (15 kpsi)): 2.46 μm
- Primary Particle Size X50 after wet-milling ([6]; 3 passes (15, 15, 20 kpsi)): 1.06 μm
- Primary Particle Size X90 after wet-milling ([6]; 3 passes (15, 15, 20 kpsi)): 2.14 μm

From patent US20260199383A1 (priority 2022, published 2026)
